The term half-life denotes the time needed for the level to fall by half in the phase considered. Read a high half-life as slow decline. What is called IC50 is the point on the concentration scale where inhibition reaches its midpoint. In general, bioavailability refers to the share of a dose that reaches the circulation, judged against a reference dose that is usually intravenous. Low readings indicate poor availability, high ones good availability.

Where only a bound is given, the exact number is not on record here.

Data set [1] is described as follows: Half-life in human liver microsomes (HLM). It is filed as in vitro ADME. Conditions: human liver microsomes (HLM, HL101); human liver microsomes 0.78 mg/mL, 1 μM compound, NADPH, pH 7.4, 37° C. On the technique in general: Microsomes from liver hold many membrane-bound enzymes, among them those of drug oxidation.
Protocol: Test compounds (1 μM) are incubated with 3.3 mM MgCl2 and 0.78 mg/mL HLM (HL101) in 100 mM potassium phosphate buffer (pH 7.4) at 37° C. on the 96-deep well plate. The reaction mixture is split into two groups, a non-P450 and a P450 group. NADPH is only added to the reaction mixture of the P450 group. An aliquot of samples of P450 group is collected at 0, 10, 30, and 60 min time point, where 0 min time point indicated the time when NADPH is added into the reaction mixture of P450 group. […] Collected aliquots are extracted with acetonitrile solution containing an internal standard. […] The compound concentration in supernatant is measured by LC/MS/MS system.
The half-life value is obtained by plotting the natural logarithm of the peak area ratio of compounds/internal standard versus time. The slope of the line of best fit through the points yields the rate of metabolism (k). This is converted to a half-life value using following equations:
The target in data set [2] is T1, P2X7 receptor (IL-1β release from THP-1 cells) (Homo sapiens, UniProt Q99572).
T1 construct: host or cells: THP-1 cells differentiated with LPS and IFN-γ
T1 sequence (Q99572 1-595): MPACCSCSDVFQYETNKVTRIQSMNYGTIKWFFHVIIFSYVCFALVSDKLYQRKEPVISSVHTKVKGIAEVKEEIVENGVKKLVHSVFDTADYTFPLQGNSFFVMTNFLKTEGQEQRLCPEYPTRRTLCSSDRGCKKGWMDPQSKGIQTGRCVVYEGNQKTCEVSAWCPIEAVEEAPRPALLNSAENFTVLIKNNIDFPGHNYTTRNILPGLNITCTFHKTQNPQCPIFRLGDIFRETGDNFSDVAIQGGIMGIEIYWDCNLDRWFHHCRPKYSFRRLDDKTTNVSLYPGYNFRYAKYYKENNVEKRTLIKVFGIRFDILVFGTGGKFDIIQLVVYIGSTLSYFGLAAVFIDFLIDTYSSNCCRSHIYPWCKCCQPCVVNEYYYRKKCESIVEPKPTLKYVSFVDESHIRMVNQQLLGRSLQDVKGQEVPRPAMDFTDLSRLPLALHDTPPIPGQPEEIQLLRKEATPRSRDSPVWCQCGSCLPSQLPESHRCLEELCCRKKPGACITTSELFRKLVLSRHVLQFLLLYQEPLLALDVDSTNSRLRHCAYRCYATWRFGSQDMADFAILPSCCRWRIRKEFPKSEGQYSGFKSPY
The data set can be described thus: IL-1β release assay in differentiated THP-1 cells stimulated with BzATP (Example 9). Conditions: for inhibition at 0.3 µM: 0.3 μM concentration, BzATP 250 uM, read-out: IL-1β % Inhib. @ 0.3 or 0.1 μM; for IC50: released IL-1β as in Example 9, four parameter logistic fit. It is filed as cell-based.

Data set [3] in a line: Pharmacokinetic evaluation following intravenous and oral administration in rats. It is filed as in vivo. The following applies: rat, plasma; male Sprague-Dawley rats; PO 1 to 5 mg/kg vs IV, AUCinf dose-normalized; mean % F. As for the experimental part:
Male Sprague-Dawley rats are acclimatized for at least 24 hours prior to experiment initiation. During the acclimation period, all animals receive food and water ad libitum. However, food but not water is removed from the animals' cages at least 12 hours before initiation of the experiment. During the first 3 hours of experimentation, the animals receive only water ad libitum. At least three animals each are tested for intravenous and oral dosage. For intravenous formulation, compounds were dissolved (0.25 to 1 mg/mL) in a mixture of 3% dimethyl sulfoxide, 40% PEG 400 and the rest percentage of 40% Captisol in water (w/v). The animals are weighed before dosing. The determined body weight is used to calculate the dose volume for each animal.
Dose volume (mL/kg)=1 mg/kg/formulation concentration (mg/mL)
In instances where the formulation concentrations were less than 0.5 mg/mL, the dosing volume is about 2 mL/kg.
For oral formulation, compounds of this invention are suspended (0.5 to 0.75 mg/mL) in a mixture of 5% of 10% Tween 80 in water (v/v) and 95% of 0.5% methyl cellulose in water (w/v). PO rats are typically dosed through oral gavage following the same dose volume formula as IV to achieve a dose level of 1 to 5 mg/kg. For IV dosing, blood samples are collected (using a pre-heparinized syringe) via the jugular vein catheter at 2, 5, 15, 30, 60, 120, 180, 300, 480, and 1440 minutes post dosing. For PO dosing, blood samples are collected (using a pre-heparinized syringe) via the jugular vein catheter before dosing and at 5, 15, 30, 60, 120, 180, 300, 480, and 1440 minutes post dosing. About 250 uL of blood is obtained at each time point from the animal. Equal volumes of 0.9% normal saline are replaced to prevent dehydration. The whole blood samples are maintained on ice until centrifugation. Blood samples are then centrifuged at 14,000 rpm for 10 minutes at 4° C. and the upper plasma layer transferred into a clean vial and stored at −80° C. The resulting plasma samples are then analyzed by liquid chromatography-tandem mass spectrometry. Following the measurement of plasma samples and dosing solutions, plasma concentration-time curve is plotted. Plasma exposure is calculated as the area under the concentration-time curve extrapolated to time infinite (AUCinf). The AUCinf is averaged and the oral bioavailability (% F) for individual animal is calculated as:
AUCinf(PO)/AUCinf(IV), normalized to their respective dose levels.
The % F is reported as the mean % F of all animals dosed orally with the compound of the invention at the specified level (Table 4).

`CC12CC3CC(C)(C1)CC(CC(=O)Nc1cccc4c(=O)n(CC5CCNCC5)ccc14)(C3)C2` [Compound 518, 2-(3,5-Dimethyl-adamantan-1-yl)-N-(1-oxo-2-piperidin-4-ylmethyl-1,2-dihydro-isoquinolin-5-yl)-acetamide] had a half-life at 1 μM in data set [1] of 324 min. In data set [2], the inhibition at 0.3 µM was over 76% and the half-inhibitory concentration (IC50) was 60.1 nM. The compound also gave a bioavailability in data set [3] of 0 to 25%.

As for `O=C(CC1(O)CCCCCC1)Nc1cccc2c(=O)n(CCO)ccc12` [Compound 520], the half-life at 1 μM in data set [1] is 72.6 min. Besides, in data set [2], the inhibition at 0.3 µM was in the range of 51 to 75% and the concentration for half-maximal inhibition (IC50) stood at 165 nM. In data set [3], the bioavailability lay within 26 to 50%.

With `C[C@H](CO)N1CCc2c(NC(=O)CC34CC5CC(CC(C5)C3)C4)cccc2C1=O` [Compound 526], the half-life at 1 μM in data set [1] is 37.8 min. In data set [2], the inhibition at 0.3 µM is over 76% and the IC50 turned out to be 1 nM. The bioavailability in data set [3] is 0 to 25%.

`CC(C)[C@H](C(N)=O)n1ccc2c(NC(=O)CC34CC5CC(C)(CC(C)(C5)C3)C4)cccc2c1=O` [Compound 529]: the half-life at 1 μM in data set [1] was 39 min. In data set [2], the inhibition at 0.3 µM is 26 to 50% and the IC50 was found to be 4.65 nM. Moreover, the bioavailability in data set [3] lay within 0 to 25%.

Regarding `CC(C(N)=O)n1ccc2c(NC(=O)CC34CC5CC(CC(C5)C3)C4)cccc2c1=O` (stereo not shown) [Compound 530], the half-life at 1 μM in data set [1] was 34.8 min. Also, in data set [2], the inhibition at 0.3 µM was 26 to 50% and the IC50 is 4.37 nM. In data set [3], this compound came in with a bioavailability of 0 to 25%.

In data set [1], `O=C(CC1CCCCCC1)Nc1cccc2c(=O)n(CCO)ccc12` [Compound 544] gave a half-life at 1 μM of 20.4 min. Further, in data set [2], the inhibition at 0.3 µM was over 76% and the concentration for half-maximal inhibition (IC50) turned out to be 27.8 nM. This compound displayed a bioavailability in data set [3] of 0 to 25%.

`C[C@H](C(N)=O)n1ccc2c(NC(=O)CC3(O)CCCCCC3)cccc2c1=O` [Compound 555] had a half-life at 1 μM in data set [1] of 45.6 min. In addition, in data set [2], the inhibition at 0.3 µM was over 76% and the 50% inhibitory concentration (IC50) turned out to be 41.3 nM. Moreover, the bioavailability in data set [3] fell in the range of 26 to 50%.

For the compound `C[C@H](C(N)=O)n1ccc2c(NC(=O)CC3CCCCCC3)cccc2c1=O` [Compound 558], in data set [1], the half-life at 1 μM was 61.2 min. Also, in data set [2], the inhibition at 0.3 µM was over 76% and the 50% inhibitory concentration (IC50) was 23.8 nM. The same compound had a bioavailability in data set [3] of 0 to 25%.

The compound `C[C@H](C(N)=O)n1ccc2c(NC(=O)CC34CC5CC(CC(C5)C3)C4)cccc2c1=O` [Compound 559] had a half-life at 1 μM in data set [1] of 16.2 min. Besides, in data set [2], the inhibition at 0.3 µM is over 76% and the 50% inhibitory concentration (IC50) was 0.365 nM. The bioavailability in data set [3] lay in the range of 0 to 25%.

Compound `C[C@@H](C(N)=O)n1ccc2c(NC(=O)CC34CC5CC(CC(C5)C3)C4)cccc2c1=O` [Compound 572, (S)-2-[5-(2-Adamantan-1-yl-acetylamino)-1-oxo-1H-isoquinolin-2-yl]-propionamide] had a half-life at 1 μM in data set [1] of 40.8 min. Also, the half-inhibitory concentration (IC50) in data set [2] was determined as 1.21 nM. Further, the bioavailability in data set [3] was in the range of 26 to 50%.

For the compound `NC(=O)[C@@H](CO)n1ccc2c(NC(=O)CC34CC5CC(CC(C5)C3)C4)cccc2c1=O` [Compound 599, (R)-2-[5-(2-Adamantan-1-yl-acetylamino)-1-oxo-1H-isoquinolin-2-yl]-3-hydroxy-propionamide], in data set [1], the half-life at 1 μM is 42 min. Besides, in data set [2], the inhibition at 0.3 µM is over 76% and the IC50 stood at 1.09 nM. This compound had a bioavailability in data set [3] of 0 to 25%.

In the case of `CC(C(=O)Nc1cccc2c(=O)n([C@H](C)C(N)=O)ccc12)C1CCCCCC1` (stereo partly shown) [Compound 600], the half-life at 1 μM in data set [1] was 15 min. In data set [2], the inhibition at 0.3 µM is over 76% and the concentration for half-maximal inhibition (IC50) came out at 12.2 nM. The same compound showed a bioavailability in data set [3] of 0 to 25%.

In turn, `C[C@H](C(=O)O)n1ccc2c(NC(=O)CC34CC5CC(CC(C5)C3)C4)cccc2c1=O` [Compound 601] showed a half-life at 1 μM in data set [1] of 22.2 min. Besides, in data set [2], the inhibition at 0.3 µM was over 76% and the half-maximal inhibitory concentration (IC50) is 9.08 nM. The bioavailability in data set [3] was 0 to 25%.

Consider `C[C@H](C(N)=O)n1ccc2c(NC(=O)CC34CC5CC(CC(C5)C3)C4)c(Cl)ccc2c1=O` [Compound 602, (R)-2-[5-(2-Adamantan-1-yl-acetylamino)-6-chloro-1-oxo-1H-isoquinolin-2-yl]-propionamide], for which the half-life at 1 μM in data set [1] was 45.6 min. Besides, the IC50 in data set [2] was found to be 0.088 nM. Further, the bioavailability in data set [3] is 0 to 25%.

The compound `C[C@H](CO)n1ccc2c(NC(=O)CC3CCCCCC3)cccc2c1=O` [Compound 606, 2-Cycloheptyl-N-[2-((R)-2-hydroxy-1-methyl-ethyl)-1-oxo-1,2-dihydro-isoquinolin-5-yl]-acetamide] had a half-life at 1 μM in data set [1] of 23.4 min. In data set [2], the inhibition at 0.3 µM was over 76% and the concentration for half-maximal inhibition (IC50) came out at 4.59 nM. The compound further showed a bioavailability in data set [3] of 0 to 25%.

For the origin of these results see US20100184802A1, “Bicycloheteroaryl Compounds as P2X7 Modulators and Uses Thereof” (priority 2006, published 2010).
